Assay results published in a melting point compilation (Tetko et al.).

| Structure (SMILES) | melting point |
| --- | --- |
| O=C(Nc1ccccc1)OCC1(COC(=O)Nc2ccccc2)CCCC1 | 152 °C |
| Brc1ccc(Oc2ccccc2Br)cc1Br | < 20 °C |
| CC(C)C1(Cc2ccco2)C(=O)NC(=O)NC1=O | 169 °C |
| Cc1ccc(C#N)c(S(=O)(=O)Cl)c1 | 71 to 73 °C |
| CC(CN1c2ccccc2Sc2ccccc21)N(C)C (stereo not given) | 60 °C |
| CCOC(=O)C(C#N)=Cc1ccc(Cl)cc1 | 137 to 138 °C |
| CN(C)CCCOc1nn(Cc2ccccc2)c2ccccc12 | 160 °C |
| Nc1cccc(-c2cccc(N)c2)c1 | 93.5 °C |
| COP(=O)(OC)C(O)C(Cl)(Cl)Cl (stereo not given) | 80 °C |
| OCCNc1ccccc1 | 11 °C |
| O=C1CCC(C(=O)O)=NN1 | 199 to 200 °C |
| CC(C)(C)OC(=O)CC(NC(=O)OCC1c2ccccc2-c2ccccc21)C(=O)O (stereo not given) | 147 to 151 °C |
| Cn1nc(C(=O)O)cc1-c1cccs1 | 156 to 158 °C |
| COc1ccc(C2c3cc(OC)c(OC)cc3CCN2C(C)=O)cc1OC (stereo not given) | 164 to 165 °C |
| CC(C)(C#N)N=NC(C)(C)C#N | 102 °C |
| Sc1c(Cl)c(Cl)cc(Cl)c1Cl | 105 to 107 °C |
| CCOC(=O)c1ccc(C#N)cc1 | 54 °C |
| COc1ccc(C(=O)CCCCl)c(OC)c1 | 58 to 60 °C |
| FC(F)(F)c1ccccc1CBr | 34 to 35 °C |
| CCOP(=S)(OCC)ON=C(C#N)c1ccccc1 | 6.1 °C |
| Clc1c(Cl)c(Cl)c2c(c1Cl)OC(c1ccccc1)(c1ccccc1)O2 | 153 °C |
| Cc1ccnc(C)n1 | -4 °C |
| NNc1ccc(C(F)(F)F)cc1 | 62 °C |

| Structure (SMILES) | melting point |
| --- | --- |
| CC(C)C/C(Cc1ccccc1)=N\NC(N)=O | 89 °C |
| O=S(=O)(Cl)c1cc(Br)cc2c1OCC2 | 121 to 122 °C |
| O=C(O)COc1ccccc1O | 128 °C |
| COc1ccc(N/N=C(/C#N)c2nc(-c3ccc(C)cc3)cs2)cc1 | 145 °C |
| Cc1cccc(C)c1N(Cn1cccn1)C(=O)CCl | 85 °C |
| CC(C)(C)OC(=O)C(C)(C)ON=C(C(=O)O)c1csc(N)n1 | 180 °C |
| O=C(c1c(F)c(F)c(F)c(F)c1F)c1c(F)c(F)c(F)c(F)c1F | 93 °C |
| Cc1cc(CO)n[nH]1 | 78 to 80 °C |
| Clc1cncc(Cl)c1Cl | 72 °C |
| COc1ccccc1-c1nnc2n1NC(c1ccccc1O)S2 (stereo not given) | 205 °C |
| Oc1c(F)cc(Br)cc1Br | 32 °C |
| C=CC1CN2CCC1CC2C(=O)c1ccnc2ccc(OC)cc12 (stereo not given) | 108 °C |
| CC(=O)c1cccnc1C(=O)OC(C)C | 40 °C |
| COC(=O)c1ccc(C(C)=O)cc1 | 93 to 95 °C |
| Nc1ccc(CO)cn1 | 120 °C |
| Cc1ccc(O)c(-n2nc3ccccc3n2)c1 | 132 °C |
| CC(=O)NCCCCC(N)C(=O)O (stereo not given) | 250 °C |
| C=C1N(C(C)=O)c2ccccc2C1(C)C(=O)OC (stereo not given) | 59 to 61 °C |
| Cc1ccc(C(=O)C=Cc2ccc(Cl)cc2)cc1 | 122 °C |
| Cc1ccc2ccc3ccccc3c2c1 | 65 °C |
| CCCCCCCCCCCCCCCCCC(=O)OCCCCC | 30 °C |
| O=c1nc2ccccc2nc(C(F)(F)F)c1NNc1cccc2ccccc12 | 171 °C |
| CC(=NNC(=O)c1ccncc1)c1ccco1 | 199 °C |

| Structure (SMILES) | melting point |
| --- | --- |
| C=Cc1ccc(C=C)cc1 | 31 °C |
| CC1CC(OC(=O)c2ccccc2)CC(C)(C)N1 (stereo not given) | 70.5 °C |
| CNCc1nn(C)c2ccccc12 | 37 to 40 °C |
| CNc1c(F)c(F)c(-c2c(F)c(F)c(F)c(F)c2F)c(F)c1F | 72 °C |
| Cc1ccc(C)c(C(=O)CC(C)(C)C(=O)O)c1 | 118 to 119 °C |
| CCN(CCO)c1cccc(C)c1 | -19 °C |
| CCCCCCCCCCCC#N | 4 °C |
| NS(=O)(=O)c1ccccc1[N+](=O)[O-] | 191 °C |
| CC/C=C/CCO | -61.5 °C |
| Nc1ccccc1Cl | -3 °C |
| CCOC(=O)c1sc(SC)c2c1-c1ccccc1N(C)S2(=O)=O | 190 to 193 °C |
| Nc1c([N+](=O)[O-])ccc(Oc2ccccc2)c1Cl | 81.5 °C |
| O=COc1ccc([N+](=O)[O-])cc1 | 72 °C |
| O=Cc1ccc(-c2ccc(C(F)(F)F)cn2)cc1 | 91 to 93 °C |
| O=C(O)c1cc(F)c(Cl)nc1Cl | 154 to 155 °C |
| O=S(=O)(Cl)c1cc2ccccc2s1 | 75 to 76 °C |
| Cc1ccc(C#N)cc1[N+](=O)[O-] | 106 °C |
| CCCOc1ccc(O)cc1 | 56.5 °C |
| Cc1ccc(C(=O)O)cc1Br | 208 °C |
| NNC(=S)NCCc1ccccc1 | 112 to 114 °C |
| COc1nccnc1NS(=O)(=O)c1ccc(N)cc1 | 176 °C |
| CC12CCC(=O)C=C1CCC1C2CCC2(C)C1CCC2(O)C(=O)CO (stereo not given) | 215 °C |
| CCOC(=O)CN(C(=O)CCl)c1c(CC)cccc1CC | 50 °C |

| Structure (SMILES) | melting point |
| --- | --- |
| Cc1c(C(=O)Cl)oc2ccccc12 | 70 to 74 °C |
| CN(C)c1ccc(C=Cc2ccccc2)cc1 | 150 °C |
| CC(=O)N1N=C(c2ccc3ccccc3c2)C[C@@H]1c1ccc(Cl)c(Cl)c1 | 242 °C |
| CP(=O)(c1ccccc1)c1ccccc1 | 113 °C |
| c1ccc2cc(Nc3ccc(Nc4ccc5ccccc5c4)cc3)ccc2c1 | 235 °C |
| Cc1cc(N)n(-c2ccccc2)n1 | 116 °C |
| CS(=O)(=O)c1csc(C(=O)Cl)c1Cl | 181 to 185 °C |
| CN1N=C2c3ccccc3CCC2C1c1ccc(Cl)cc1 (stereo not given) | 199 to 201 °C |
| COc1ccc(C(=O)c2ccc(Cl)cc2Cl)cc1OC | 128 °C |
| Cc1nc(/C(C#N)=C\c2ccc(Cl)cc2Cl)sc1/N=N/c1ccc(F)cc1 | 138 to 140 °C |
| COC(=O)NC=Cc1ccc(C=CNC(=O)OC)cc1 | 360 °C |
| COC(=O)c1ccc2c(C=O)c[nH]c2c1 | 219 to 224 °C |
| CC(C)(C)OC(=O)NCCCC(=O)O | 55 °C |
| CNC(=O)c1cc(C)cc(Cl)c1NC(=O)c1cc(Br)nn1-c1ncccc1Cl | 209 °C |
| OC1CCCCC1Cl (stereo not given) | 29 °C |
| Cc1oc(-c2ccccc2)nc1CC(=O)O | 131 to 133 °C |
| CCCCCC1=CCCC1 | -83 °C |
| O=[N+]([O-])c1ccc(SSc2ccc([N+](=O)[O-])cc2)cc1 | 182 °C |
| C=CF | -160 °C |
| O=Cc1ccc(N2CCCCC2)nc1 | 43 °C |
| NC(=S)Nc1cccc(Cl)c1Cl | 160 to 162 °C |
| O=S1(=O)CCCCO1 | 13.5 °C |
| O=C(NCc1ccccn1)C(F)(F)F | 75 °C |

| Structure (SMILES) | melting point |
| --- | --- |
| Nc1ccc(N)c2c1C(=O)c1cccc([N+](=O)[O-])c1C2=O | 257 °C |
| Nc1ccc(CN2CCCC2)cc1 | 46 to 48 °C |
| OCc1cccc2cccc(CO)c12 | 155 to 158 °C |
| O=C(Nc1ccc(F)cc1)Nc1nnc(-c2ccc(Cl)cc2)o1 | 268 to 270 °C |
| COC(=O)c1ccc(C)nc1 | 34 to 37 °C |
| Cc1cc(C(=O)CCl)c(C)n1-c1ccc(Cl)cc1 | 88 to 89 °C |
| CO[C@@H](C)C(N)=O | 80 to 84 °C |
| O=C1OC(c2ccccc2)c2ccccc21 (stereo not given) | 117 °C |
| Cc1nc(COc2ccc(C(N)=NO)cc2)cs1 | 193 to 194 °C |
| O=C(CCl)NC1CC1 | 82 °C |
| CN1CCc2cc3c(cc2C1)OCO3 | 66 °C |
| CC1=CC(=O)NS(=O)(=O)O1 | 123 °C |
| O=[N+]([O-])c1cc(Br)ccc1O | 92 °C |
| O=C(CC(C(=O)c1ccccc1)c1ccccc1)c1ccccc1 (stereo not given) | 128 °C |
| O=C(O)C(c1ccc(Cl)cc1)c1ccc(Cl)cc1 | 168 °C |
| O=Cc1cccc(CN2CCOCC2)c1 | 63 to 64 °C |
| Cc1ccccc1-n1ncc(C(=O)O)c1C | 142 to 147 °C |
| ClC=CCCl (mixture of isomers) | -50 °C |
| O=C(Cl)c1ccc(-c2ccsc2)cc1 | 145 to 147 °C |
| CC1(C)CC(N)CC(C)(C)N1 | 17 °C |
| CC1CCCC(C)(C)C1=O (stereo not given) | -31.8 °C |
| O=[N+]([O-])c1ccccc1OCCN1CCOCC1 | 44 to 45 °C |
| c1ccc(Cn2cccc2)cc1 | 15 °C |

| Structure (SMILES) | melting point |
| --- | --- |
| CSSC | -85 °C |
| CC(=O)OCCOc1cc(OCCOC(C)=O)c([N+](=O)[O-])cc1[N+](=O)[O-] | 91 °C |
| Cc1nc2ccccn2c1C(=O)O | 140 to 142 °C |
| C1CNCCNCCNCCN1 | 108 to 113 °C |
| CCc1cc2c(s1)N(C)C(=O)CN=C2c1ccccc1Cl | 119 °C |
| O=C(O)CSC(=S)SCC(=O)O | 170 to 175 °C |
| O=c1cc[nH]c2c1cnn2-c1ccccc1 | 166 to 168 °C |
| N#Cc1ccc(C=Cc2ccccc2C=NNc2ccccc2)c([N+](=O)[O-])c1 | 182 °C |
| N#Cc1c(O)cccc1F | 156 °C |
| ClCc1nc2ccccc2[nH]1 | 146 to 150 °C |
| Cc1cccc2c(C=O)c[nH]c12 | 210 °C |
| O=C(CCl)Nc1ccc([N+](=O)[O-])cc1 | 185 to 186 °C |
| O=C=N[Si](N=C=O)(N=C=O)N=C=O | 26 °C |
| NCc1cc(C(F)(F)F)ccc1N1CCOCC1 | 31 to 34 °C |
| OCC1OC1c1ccccc1 (stereo not given) | 51 to 53 °C |
| Cc1c(C(=O)O)[nH]c2ccccc12 | 162 to 163 °C |
| O=C(Cl)c1csc(-c2ccc3c(c2)CCO3)n1 | 133 to 135 °C |
| Clc1ccccc1C=C1c2ccccc2-c2ccccc21 | 69.5 °C |
| Ic1cccc2ccccc12 | 4 °C |
| CCCCOC(=O)COc1cc(Cl)c(Cl)cc1Cl | 28.5 °C |
